Reference: patent publication US8178522B2, “Thiazoles” (Hoffmann-La Roche Inc., priority 2009, dated 2012)

target: T1, GABA A α5 (α5β3γ2) (Homo sapiens, UniProt P18507+P31644); experiment: [3H]flumazenil competition binding, human GABA A α5 receptor; settings: human receptor α5β3γ2 transiently transfected in HEK293 cells; competition for [3H]flumazenil 0.5 nM; 1 hour at 4° C.; means of two determinations; read-out: hKi GABA A α5
T1 construct: expressed in transfected cells; host or cells: HEK293, transiently transfected; membrane preparation
Summary of the method: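 Competition with [3H]flumazenil at membranes from HEK293 cells transiently expressing human α5β3γ2, in Krebs-tris buffer pH 7.5. Equilibrium 1 hour at 4° C, filtration with ice-cold 50 mM Tris wash, scintillation counting. Ki values are means of two determinations.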

| SMILES | Ki [nM] |
| --- | --- |
| Cc1nc(/C=C/c2conc2-c2ccc(F)cn2)sc1C(=O)NCC1CC1 [Example 92, 2-{(E)-2-[3-(5-Fluoro-pyridin-2-yl)-isoxazol-4-yl]-vinyl}-4-methyl-thiazole-5-carboxylic acid cyclopropylmethyl-amide] | 40.4 |
| Cc1nc(CCc2c(-c3ccc(F)cn3)noc2C)sc1C(=O)NCCO [Example 36, 2-{2-[3-(5-Fluoro-pyridin-2-yl)-5-methyl-isoxazol-4-yl]-ethyl}-4-methyl-thiazole-5-carboxylic acid (2-hydroxy-ethyl)-amide] | 14 |
| Cc1onc(-c2ccc(F)cn2)c1/C=C/c1ncc(C(=O)N2CCS(=O)(=O)CC2)s1 [Example 83, (1,1-Dioxothiomorpholin-4-yl)-(2-{(E)-2-[3-(5-fluoro-pyridin-2-yl)-5-methyl-isoxazol-4-yl]-vinyl}-thiazol-5-yl)-methanone] | 27.4 |
| CCCCc1noc(C)c1CCc1ncc(C(=O)N[C@@H](C)CO)s1 [Example 61, 2-[2-(3-Butyl-5-methyl-isoxazol-4-yl)-ethyl]-thiazole-5-carboxylic acid ((S)-2-hydroxy-1-methyl-ethyl)-amide] | 43.6 |
| Cc1nc(CCc2c(-c3ccccn3)noc2C)sc1C(=O)N1CCSCC1 [Example 17, {4-Methyl-2-[2-(5-methyl-3-pyridin-2-yl-isoxazol-4-yl)-ethyl]-thiazol-5-yl}-thiomorpholin-4-yl-methanone] | 42.8 |
| Cc1onc(-c2ccc(F)cn2)c1/C=C/c1ncc(C(=O)NC(C)(C)CO)s1 [Example 80, 2-{(E)-2-[3-(5-Fluoro-pyridin-2-yl)-5-methyl-isoxazol-4-yl]-vinyl}-thiazole-5-carboxylic acid (2-hydroxy-1,1-dimethyl-ethyl)-amide] | 17.4 |
| Cc1nc(/C=C/c2c(-c3ccc(F)cn3)noc2C)sc1C(=O)NC(C)(C)CO [Example 74, 2-{(E)-2-[3-(5-Fluoro-pyridin-2-yl)-5-methyl-isoxazol-4-yl]-vinyl}-4-methyl-thiazole-5-carboxylic acid (2-hydroxy-1,1-dimethyl-ethyl)-amide] | 8.4 |
| Cc1nc(CCc2c(-c3ccc(F)cn3)noc2C)sc1C(=O)NCC1CC1 [Example 34, 2-{2-[3-(5-Fluoro-pyridin-2-yl)-5-methyl-isoxazol-4-yl]-ethyl}-4-methyl-thiazole-5-carboxylic acid cyclopropylmethyl-amide] | 16 |
| CCCCc1noc(C)c1CCc1nc(C)c(C(=O)NC2CCOC2)s1 (racemic) [Example 52, Rac-2-[2-(3-Butyl-5-methyl-isoxazol-4-yl)-ethyl]-4-methyl-thiazole-5-carboxylic acid (tetrahydro-furan-3-yl)-amide] | 15.2 |
| CCCCc1noc(C)c1CCc1ncc(C(=O)NC2CCOC2)s1 (stereo not shown) [Example 60, 2-[2-(3-Butyl-5-methyl-isoxazol-4-yl)-ethyl]-thiazole-5-carboxylic acid (tetrahydro-furan-3-yl)-amide] | 35.5 |
| CCCCc1noc(C)c1/C=C/c1nc(C)c(C(=O)N2CC(OC)C2)s1 [Example 109, {2-[(E)-2-(3-Butyl-5-methyl-isoxazol-4-yl)-vinyl]-4-methyl-thiazol-5-yl}-(3-methoxy-azetidin-1-yl)-methanone] | 33.2 |

Other lines, results leading:

| Ki [nM] | SMILES |
| --- | --- |
| 8.2 | Cc1nc(CCc2c(-c3ccccc3)noc2C)sc1C(=O)NC1CCOCC1 [Example 5, 4-Methyl-2-[2-(5-methyl-3-phenyl-isoxazol-4-yl)-ethyl]-thiazole-5-carboxylic acid (tetrahydro-pyran-4-yl)-amide] |
| 2.2 | CCCCc1noc(C)c1/C=C/c1nc(C)c(C(=O)NCCO)s1 [Example 95, 2-[(E)-2-(3-Butyl-5-methyl-isoxazol-4-yl)-vinyl]-4-methyl-thiazole-5-carboxylic acid (2-hydroxy-ethyl)-amide] |
| 1.7 | Cc1onc(-c2ccccc2)c1/C=C/c1ncc(C(=O)NC2CCOC2)s1 (stereo in doubt) [Example 64, (S)-2-[(E)-2-(5-Methyl-3-phenyl-isoxazol-4-yl)-vinyl]-thiazole-5-carboxylic acid (tetra-hydro-furan-3-yl)-amide] |
| 0.5 | Cc1nc(/C=C/c2c(-c3ccccc3)noc2C)sc1C(=O)NCCO [Example 70, 4-Methyl-2-[(E)-2-(5-methyl-3-phenyl-isoxazol-4-yl)-vinyl]-thiazole-5-carboxylic acid (2-hydroxy-ethyl)-amide] |
| 1.8 | Cc1onc(-c2ccccc2)c1COc1ncc(C(=O)NC2CCOCC2)s1 [Example 128, 2-(5-Methyl-3-phenyl-isoxazol-4-ylmethoxy)-thiazole-5-carboxylic acid (tetrahydro-pyran-4-yl)-amide] |
| 1.3 | Cc1onc(-c2ccccc2)c1/C=C/c1ncc(C(=O)NC(C)C)s1 [Example 65, 2-[(E)-2-(5-Methyl-3-phenyl-isoxazol-4-yl)-vinyl]-thiazole-5-carboxylic acid isoprop-ylamide] |
| 5.7 | Cc1nc(CCc2c(-c3ccccn3)noc2C)sc1C(=O)NC1CCOCC1 [Example 9, 4-Methyl-2-[2-(5-methyl-3-pyridin-2-yl-isoxazol-4-yl)-ethyl]-thiazole-5-carboxylic acid (tetrahydro-pyran-4-yl)-amide] |
| 6.6 | CCCCc1noc(C)c1/C=C/c1ncc(C(=O)NCCO)s1 [Example 125, 2-[(E)-2-(3-Butyl-5-methyl-isoxazol-4-yl)-vinyl]-thiazole-5-carboxylic acid (2-hydroxy-ethyl)-amide] |
